Experimental data as given in EP1420008B1, “Composition, in particular cosmetic, comprising a secondary or tertiary amine” (L'ORÉAL, priority 2002, dated 2004).

How the values were obtained:
[1] = system: jonction nerf / muscle (plaque motrice); assay: Nerve/muscle junction model (motor end plate): isolated rat phrenic nerve / diaphragm preparation, contractions induced by indirect stimulation; conditions: for inhibition at 100 µM: Rattus norvegicus, concentration 10^-4 M, contractions induced by stimulation of the phrenic nerve (0.1 à 0.5 volts, 0.3 ms, 0.1 Hz), read-out: % INHIBITION DES CONTRACTIONS
Method: Le composé 1 a été testé sur un modèle de jonction nerf / muscle (plaque motrice) obtenu dans une préparation nerf phrénique / diaphragme isolé de rat (muscle strié) (Pollard B.J. et al, Br.J. Anaesth., 1988, 61, 419-424).
(§1) Ce test est prédictif d'un effet anti-rides, comme cela a été vérifié par la Demanderesse sur le diazépam, qui est à la fois actif in vivo chez l'homme et dans ce test à 10^-4 M.
Le nerf phrénique et le diaphragme sont soigneusement isolés et placés dans une cuve de 50 ml remplie de liquide de survie (liquide de Krebs Henseleit) maintenu à une température de 37°C et oxygéné à l'aide d'un mélange oxygène/CO2 (95/5).
Les variations de tension du diaphragme sont enregistrées avec une pré-charge initiale de plusieurs grammes.
Après une période de relaxation de 30 mn, le diaphragme est stimulé indirectement par l'intermédiaire du nerf phrénique.
Sur chaque préparation, l'effet du composé à tester a été évalué sur les contractions induites par stimulation indirecte via stimulation sur le nerf phrénique (0.1 à 0.5 volts, 0.3 ms, 0.1 Hz). L'alvérine, connue comme composé myorelaxant à effet anti-rides d'après la demande FR-2 798 590, est utilisée comme témoin.

[2] = biological target: canaux calciques de type L, site vérapamil (Rattus norvegicus, UniProt P22002); assay: Calcium channel test: competitive inhibition of [3H](-) D 888 binding, rat cerebral cortex homogenates
Source text: Le test mesure la capacité d'un produit à inhiber par compétition la fixation d'[…] de canaux calciques de type L, type Vérapamil. Ces canaux ont été identifiés au niveau des fibroblastes humains (Baumgarten LB and coll (1992), J. Biol. Chem, 267, 10524-10530 et Chen CF and coll (1988), Science, 239, 1024-1026).
Les études sont réalisées à partir d'homogénats de cortex cérébral de rat (membranes isolées présentant à leur surface notamment les canaux calciques de type L).
Les conditions expérimentales selon le protocole décrit par Reynolds I.J. et al., 1986, J. Pharmacol. Exp. Ther., 237, p.731, sont présentées dans le tableau 1 ci-dessous : Tableau 1
D888 et D600 sont les molécules de référence spécifiques des canaux calciques de type L, site vérapamil.
La liaison spécifique d'un ligand (D888 marqué) aux récepteurs (canaux calciques de type L, site vérapamil) est défini comme la différence entre la liaison totale et la liaison non spécifique déterminée en présence d'un excès de ligand non radioactif. Les résultats sont exprimés en pourcentage de liaison spécifique témoin et en pourcentage d'inhibition de cette liaison en présence des composés testés.
Les valeurs d'IC50 (concentration inhibant 50% de la liaison spécifique témoin) et du coefficient de Hill (nH) sont calculées pour les composés testés à partir des courbes de compétition selon un modèle de régression non linéaire. […]

[3] = Anti-wrinkle effect in vivo in man (verification of the predictive value of the nerve/muscle test); conditions: in vivo chez l'homme
Source text: as §1

Sequence of canaux calciques de type L, site vérapamil (P22002 whole entry): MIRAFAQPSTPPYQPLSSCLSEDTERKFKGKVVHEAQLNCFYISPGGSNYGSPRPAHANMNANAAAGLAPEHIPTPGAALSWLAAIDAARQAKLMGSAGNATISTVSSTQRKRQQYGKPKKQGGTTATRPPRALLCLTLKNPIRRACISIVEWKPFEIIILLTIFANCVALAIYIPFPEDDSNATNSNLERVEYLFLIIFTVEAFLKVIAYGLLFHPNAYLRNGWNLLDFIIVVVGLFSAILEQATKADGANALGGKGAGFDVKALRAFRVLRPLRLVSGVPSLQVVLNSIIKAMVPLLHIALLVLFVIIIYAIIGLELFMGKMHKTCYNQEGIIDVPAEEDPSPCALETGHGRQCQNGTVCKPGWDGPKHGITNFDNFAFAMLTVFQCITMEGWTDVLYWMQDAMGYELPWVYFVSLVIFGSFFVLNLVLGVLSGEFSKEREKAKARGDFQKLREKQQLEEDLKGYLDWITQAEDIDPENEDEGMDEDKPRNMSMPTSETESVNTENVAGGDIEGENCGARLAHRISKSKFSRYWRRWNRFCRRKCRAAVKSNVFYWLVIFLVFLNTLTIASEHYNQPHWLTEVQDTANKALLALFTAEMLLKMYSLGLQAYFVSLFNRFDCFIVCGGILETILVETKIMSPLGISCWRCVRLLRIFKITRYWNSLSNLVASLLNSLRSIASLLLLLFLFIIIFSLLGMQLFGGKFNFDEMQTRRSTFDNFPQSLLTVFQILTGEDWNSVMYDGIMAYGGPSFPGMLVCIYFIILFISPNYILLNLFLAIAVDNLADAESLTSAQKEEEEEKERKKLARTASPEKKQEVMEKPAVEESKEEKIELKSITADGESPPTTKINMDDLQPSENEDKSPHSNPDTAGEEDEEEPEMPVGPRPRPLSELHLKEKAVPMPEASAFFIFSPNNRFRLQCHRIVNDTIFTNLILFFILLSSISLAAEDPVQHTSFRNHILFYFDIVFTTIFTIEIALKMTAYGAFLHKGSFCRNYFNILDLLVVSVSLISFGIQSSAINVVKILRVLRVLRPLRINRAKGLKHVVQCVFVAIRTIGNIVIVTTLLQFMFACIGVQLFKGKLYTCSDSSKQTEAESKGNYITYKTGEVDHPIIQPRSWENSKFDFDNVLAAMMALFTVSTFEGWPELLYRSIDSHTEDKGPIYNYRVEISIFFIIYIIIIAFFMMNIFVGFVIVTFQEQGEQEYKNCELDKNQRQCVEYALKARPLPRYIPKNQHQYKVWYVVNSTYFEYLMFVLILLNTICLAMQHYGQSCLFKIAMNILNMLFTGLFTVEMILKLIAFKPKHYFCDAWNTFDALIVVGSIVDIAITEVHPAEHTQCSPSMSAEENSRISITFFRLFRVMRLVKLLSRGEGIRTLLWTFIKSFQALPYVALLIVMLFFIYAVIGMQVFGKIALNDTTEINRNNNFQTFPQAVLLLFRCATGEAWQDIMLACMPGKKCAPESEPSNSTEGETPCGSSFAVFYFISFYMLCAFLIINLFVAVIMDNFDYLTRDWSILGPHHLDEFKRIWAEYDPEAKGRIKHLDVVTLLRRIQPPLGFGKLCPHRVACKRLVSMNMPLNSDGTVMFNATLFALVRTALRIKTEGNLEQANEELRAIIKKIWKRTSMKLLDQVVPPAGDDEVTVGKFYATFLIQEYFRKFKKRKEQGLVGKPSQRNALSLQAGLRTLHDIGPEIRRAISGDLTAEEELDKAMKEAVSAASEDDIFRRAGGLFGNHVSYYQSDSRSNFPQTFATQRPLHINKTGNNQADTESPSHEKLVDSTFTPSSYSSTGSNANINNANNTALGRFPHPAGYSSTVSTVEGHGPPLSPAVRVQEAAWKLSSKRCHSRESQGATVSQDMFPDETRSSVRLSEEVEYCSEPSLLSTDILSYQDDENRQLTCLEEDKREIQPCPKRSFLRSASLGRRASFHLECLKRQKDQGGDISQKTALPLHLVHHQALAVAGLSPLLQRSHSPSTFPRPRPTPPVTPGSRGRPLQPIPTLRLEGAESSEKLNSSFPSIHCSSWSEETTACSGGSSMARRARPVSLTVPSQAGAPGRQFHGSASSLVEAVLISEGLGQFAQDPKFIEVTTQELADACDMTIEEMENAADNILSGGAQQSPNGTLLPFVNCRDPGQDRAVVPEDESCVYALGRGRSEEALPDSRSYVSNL

| Compound | inhibition at 100 µM [1] [%] | IC50 ([2]; ligand [^3H](-) D 888 0.5 nM, non-specific D 600 (10 µM), 60 min. /22°C, measured in duplicate) [nM] | activity in vivo (anti-wrinkle effect) [3] | activity in the nerve/muscle junction test ([1]; 10^-4 M) | calcium channel inhibition compared with alvérine ([2]; conclusion from the IC50 values of Tableau 2) |
| --- | --- | --- | --- | --- | --- |
| CCN(CCCc1ccccc1)CCCc1ccccc1 [Alvérine] | 100 | 693 |  |  |  |
| CN1C(=O)CN=C(c2ccccc2)c2cc(Cl)ccc21 [diazépam] |  |  | actif | actif |  |
| CCCCCC(O)(CCCCC)CCN(CC)CCCc1ccccc1 [Composé 1, 6-[2-{ethyl-(3-phenyl-propyl)amino}-ethyl]-undecan-6-ol] | 100 |  |  |  | meilleur inhibiteur de canaux calciques que l'alvérine |
